Source: patent US7659394B2 (Pfizer Inc, priority 2004, dated 2010)

Tests used:
[1] = molecular target: T1, human seritonin transporter (Homo sapiens, UniProt P31645); test: hSERT receptor binding ([125I]-RTI-55 radioligand binding); conditions: membranes of HEK-293 cells transfected with human seritonin transporter, IC50 converted to Ki by Cheng-Prusoff, read-out: SERT (Ki)
T1 construct: host or cells: HEK-293

[2] = molecular target: T2, human norepinephrine transporter (Homo sapiens, UniProt P23975); test: hNET receptor binding ([125I]-RTI-55 radioligand binding); conditions: membranes of HEK-293 cells transfected with human norepinephrine transporter, IC50 converted to Ki by Cheng-Prusoff, read-out: hNET (Ki)
T2 construct: host or cells: HEK-293
In short: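 Membranes from HEK-293 cells transfected with human NET. Nonspecific binding defined with 10 μM desipramine, duplicates. IC50 by nonlinear regression, converted to Ki with Cheng-Prusoff.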

T2 sequence (P23975 whole entry): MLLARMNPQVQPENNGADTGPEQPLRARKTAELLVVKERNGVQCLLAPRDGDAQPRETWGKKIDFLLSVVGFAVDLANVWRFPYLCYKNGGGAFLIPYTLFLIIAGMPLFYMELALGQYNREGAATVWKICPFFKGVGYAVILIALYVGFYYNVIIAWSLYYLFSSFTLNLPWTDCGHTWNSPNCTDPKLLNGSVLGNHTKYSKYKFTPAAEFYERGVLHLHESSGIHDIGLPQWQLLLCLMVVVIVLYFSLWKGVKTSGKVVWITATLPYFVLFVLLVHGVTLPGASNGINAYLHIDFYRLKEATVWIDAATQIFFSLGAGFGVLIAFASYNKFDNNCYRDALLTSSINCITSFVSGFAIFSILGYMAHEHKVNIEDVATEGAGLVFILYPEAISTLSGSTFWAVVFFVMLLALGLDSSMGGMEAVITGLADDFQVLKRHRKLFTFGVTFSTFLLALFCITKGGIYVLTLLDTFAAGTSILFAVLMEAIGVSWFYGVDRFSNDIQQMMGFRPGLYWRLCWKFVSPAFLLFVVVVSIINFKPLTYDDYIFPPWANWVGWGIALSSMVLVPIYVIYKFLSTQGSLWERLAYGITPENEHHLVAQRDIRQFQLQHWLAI
T1 sequence (P31645 whole entry): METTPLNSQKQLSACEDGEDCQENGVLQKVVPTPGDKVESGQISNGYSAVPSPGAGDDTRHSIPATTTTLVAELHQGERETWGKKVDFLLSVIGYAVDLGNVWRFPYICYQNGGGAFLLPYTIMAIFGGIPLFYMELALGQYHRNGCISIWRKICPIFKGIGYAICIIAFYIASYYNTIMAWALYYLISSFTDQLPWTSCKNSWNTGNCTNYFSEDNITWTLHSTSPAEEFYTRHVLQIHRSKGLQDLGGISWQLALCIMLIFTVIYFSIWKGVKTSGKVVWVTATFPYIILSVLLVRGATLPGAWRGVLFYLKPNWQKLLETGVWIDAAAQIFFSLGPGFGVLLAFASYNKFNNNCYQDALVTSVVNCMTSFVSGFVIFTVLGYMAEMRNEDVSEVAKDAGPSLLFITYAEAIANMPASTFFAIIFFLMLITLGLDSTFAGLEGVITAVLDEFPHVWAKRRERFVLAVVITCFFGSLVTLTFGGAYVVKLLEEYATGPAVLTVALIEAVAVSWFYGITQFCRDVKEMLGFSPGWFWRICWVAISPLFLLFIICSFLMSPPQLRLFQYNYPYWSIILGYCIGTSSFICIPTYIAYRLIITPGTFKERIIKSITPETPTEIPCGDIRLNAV

Ki [1] [nM] | Ki [2] [nM] | SMILES
5830 | 6 | CCC[C@H](Oc1cccnc1OCC)[C@@H]1CNCCO1 [Example 191, (2S)-2-{(1S)-1-[(2-ethoxypyridin-3-yl)oxy]butyl}morpholine]
3670 | 7.5 | c1ccc(O[C@@H](c2ccccc2)[C@@H]2CNCCO2)cc1 [Example 80, (S)-2-((S)-Phenoxy-phenyl-methyl)-morpholine]
6600 | 68 | c1ccc([C@H](Oc2ccccc2CC2CC2)[C@@H]2CNCCO2)cc1 [Example 61, (S)-2-[(S)-(2-Cyclopropylmethyl-phenoxy)-phenyl-methyl]-morpholine]
605 | 11 | CCOc1ccccc1OC(c1ccc(F)cc1)[C@H]1CNCCO1 (stereo partly shown) [Example 35]
≥ 10000 | 16 | CCOc1ccccc1O[C@@H](C1CCCCC1)[C@@H]1CNCCO1 [Example 51, (S)-2-[(S)-Cyclohexyl-(2-ethoxy-phenoxy)-methyl]-morpholine]
62 | 30 | CSc1cc(F)ccc1O[C@@H](c1ccccc1)[C@@H]1CNCCO1 [Example 198, (2S)-2-[(S)-[4-fluoro-2-(methylthio)phenoxy](phenyl)methyl]morpholine]
5340 | 7 | CC(C)c1cccc(F)c1O[C@@H](c1ccccc1)[C@@H]1CNCCO1 [Example 183, (2S)-2-[(S)-(2-fluoro-6-isopropylphenoxy)(phenyl)methyl]morpholine]
75 | 35 | c1ccc(C(Oc2ccccc2C2CC2)[C@H]2CNCCO2)cc1 (stereo partly drawn) [Example 114, (2R)-2-[(2-cyclopropylphenoxy)(phenyl)methyl]morpholine]
44 | 11 | Fc1cc(F)c(O[C@@H](c2ccccc2)[C@@H]2CNCCO2)c(C2CC2)c1 [Example 122, (2S)-2-[(S)-(2-cyclopropyl-4,6-difluorophenoxy)(phenyl)methyl]morpholine]
3940 | 9.9 | FC(F)(F)Oc1ccccc1O[C@@H](c1ccccc1)[C@@H]1CNCCO1 [Example 1, (S)-2-[(S)-Phenyl-(2-trifluoromethoxy-phenoxy)-methyl]-morpholine]
206 | 61 | CC(C)Cc1cc(F)ccc1O[C@@H](c1ccccc1)[C@@H]1CNCCO1 [Example 59, (S)-2-[(S)-(4-Fluoro-2-isobutyl-phenoxy)-phenyl-methyl]-morpholine]
5220 | 147 | CCOc1ncccc1OC(C(C)C)[C@@H]1CNCCO1 (stereo partly drawn) [Example 189, (2S)-2-{1-[(2-ethoxypyridin-3-yl)oxy]-2-methylpropyl}morpholine]
7060 | 10 | CCOc1ccccc1OC(c1ncco1)[C@@H]1CNCCO1 (mixture of isomers) [Example 195, (S)-2-[(2-ethoxyphenoxy)(1,3-oxazol-2-yl)methyl]morpholine]
356 | 8.57 | c1ccc([C@H](Oc2cccc3c2CCC3)[C@@H]2CNCCO2)nc1 [Example 110, (2S)-2-[(S)-(2,3-dihydro-1H-inden-4-yloxy)(pyridin-2-yl)methyl]morpholine]
2630 | 51 | Fc1ccccc1OC(c1cccnc1)[C@@H]1CNCCO1 (mixture of isomers) [Example 23, (S)-2-[(S)-(2-Fluorophenoxy)-pyridin-3-yl-methyl]-morpholine]
1260 | 8 | Fc1cccc(Br)c1O[C@@H](c1ccccn1)[C@@H]1CNCCO1 [Example 186, (2S)-2-[(S)-(2-bromo-6-fluorophenoxy)(pyridin-2-yl)methyl]morpholine]

Ki [1] [nM] | Ki [2] [nM] | SMILES
1940 | 9 | Fc1ccc(Cl)c(O[C@@H](c2ccccn2)[C@@H]2CNCCO2)c1 [Example 152, (2S)-2-[(S)-(2-chloro-5-fluorophenoxy)(pyridin-2-yl)methyl]morpholine]
4100 | 517 | CCOc1ccccc1O[C@@H](CC(C)C)[C@@H]1CNCCO1 [Example 38, (S)-2-[(S)-1-(2-Ethoxy-phenoxy)-3-methyl-butyl]-morpholine]
2560 | 9 | Fc1cccc(OC(F)(F)F)c1O[C@@H](c1ccccc1)[C@@H]1CNCCO1 [Example 194, (2S)-2-[(S)-[2-fluoro-6-(trifluoromethoxy)phenoxy](phenyl)methyl]morpholine]
729 | 8.9 | Cc1ccccc1O[C@@H](c1ccccc1)[C@@H]1CNCCO1 [Example 49, (S)-2-((S)-Phenyl-o-tolyloxy-methyl)-morpholine]
74 | 1020 | Fc1ccc(OC(c2cccnc2)C2CNCCO2)c(Cl)c1 (stereo in doubt) [Example 19, (S)-2-[(R)-(2-Chloro-4-fluoro-phenoxy)-pyridin-3-yl-methyl]-morpholine]
4860 | 7.3 | Fc1ccccc1O[C@@H](c1ccccc1)[C@@H]1CNCCO1 [Example 84, (S)-2-[(S)-(2-Fluoro-phenoxy)-phenyl-methyl]-morpholine]
4540 | 49 | CCOc1ccccc1O[C@@H](c1cc(CC)ccn1)[C@@H]1CNCCO1 [Example 142, (2S)-2-[(S)-(2-ethoxyphenoxy)(4-ethylpyridin-2-yl)methyl]morpholine]
≥ 10000 | 41 | Clc1ccccc1-c1ccccc1O[C@@H](c1ccccc1)[C@@H]1CNCCO1 [Example 30, (S)-2-[(S)-(2′-Chloro-biphenyl-2-yloxy)-phenyl-methyl]-morpholine]
346 | 30 | CCc1ncccc1O[C@@H](c1ccccc1)[C@@H]1CNCCO1 [Example 124, (2S)-2-[(S)-[(2-ethylpyridin-3-yl)oxy](phenyl)methyl]morpholine]
≥ 10000 | 1140 | CCOc1ccccc1OC(C1CC1)[C@@H]1CNCCO1 (stereo partly drawn) [Example 118, (2S)-2-[cyclopropyl(2-ethoxyphenoxy)methyl]morpholine]
≥ 10000 | 593 | CCOc1ccccc1O[C@H](c1ccccn1)[C@@H]1CNCCO1 [Example 20, (S)-2-[(R)-(2-Ethoxy-phenoxy)-pyridin-2-yl-methyl]-morpholine]
61 | 3 | Cc1cccc(F)c1O[C@@H](c1ccccc1)[C@@H]1CNCCO1 [Example 178, (2S)-2-[(S)-(2-fluoro-6-methylphenoxy)(phenyl)methyl]morpholine]
1810 | 9 | CCOc1ncccc1O[C@@H](c1ccccc1)[C@@H]1CNCCO1 [Example 137, (2S)-2-[(S)-[(2-ethoxypyridin-3-yl)oxy](phenyl)methyl]morpholine]
4100 | 18 | c1ccc([C@H](Oc2ccccc2-c2cccnc2)[C@@H]2CNCCO2)cc1 [Example 13, (S)-2-[(S)-Phenyl-(2-pyridin-3-yl-phenoxy)-methyl]-morpholine]
768 | 5 | Brc1ccccc1O[C@@H](c1ccccn1)[C@@H]1CNCCO1 [Example 155, (2S)-2-[(S)-(2-bromophenoxy)(pyridin-2-yl)methyl]morpholine]
953 | 2890 | Fc1ccc(OC(c2ccccn2)[C@H]2CNCCO2)c(F)c1 (stereo partly drawn) [Example 87, (2R,3R)-2-[(2,4-Difluoro-phenoxy)-pyridin-2-yl-methyl]-morpholine]
